Measured values: patent US20210198277A1, “AMINE-SUBSTITUTED ARYL OR HETEROARYL COMPOUNDS” (Epizyme, Inc., priority 2016, published 2021)
Where two headings read alike, the source gives them in different places.

Molecular target: T1, EHMT2 (Homo sapiens, UniProt Q96KQ7)
T1 construct: host or cells: MDA-MB-231
T1 sequence (Q96KQ7 1-1210): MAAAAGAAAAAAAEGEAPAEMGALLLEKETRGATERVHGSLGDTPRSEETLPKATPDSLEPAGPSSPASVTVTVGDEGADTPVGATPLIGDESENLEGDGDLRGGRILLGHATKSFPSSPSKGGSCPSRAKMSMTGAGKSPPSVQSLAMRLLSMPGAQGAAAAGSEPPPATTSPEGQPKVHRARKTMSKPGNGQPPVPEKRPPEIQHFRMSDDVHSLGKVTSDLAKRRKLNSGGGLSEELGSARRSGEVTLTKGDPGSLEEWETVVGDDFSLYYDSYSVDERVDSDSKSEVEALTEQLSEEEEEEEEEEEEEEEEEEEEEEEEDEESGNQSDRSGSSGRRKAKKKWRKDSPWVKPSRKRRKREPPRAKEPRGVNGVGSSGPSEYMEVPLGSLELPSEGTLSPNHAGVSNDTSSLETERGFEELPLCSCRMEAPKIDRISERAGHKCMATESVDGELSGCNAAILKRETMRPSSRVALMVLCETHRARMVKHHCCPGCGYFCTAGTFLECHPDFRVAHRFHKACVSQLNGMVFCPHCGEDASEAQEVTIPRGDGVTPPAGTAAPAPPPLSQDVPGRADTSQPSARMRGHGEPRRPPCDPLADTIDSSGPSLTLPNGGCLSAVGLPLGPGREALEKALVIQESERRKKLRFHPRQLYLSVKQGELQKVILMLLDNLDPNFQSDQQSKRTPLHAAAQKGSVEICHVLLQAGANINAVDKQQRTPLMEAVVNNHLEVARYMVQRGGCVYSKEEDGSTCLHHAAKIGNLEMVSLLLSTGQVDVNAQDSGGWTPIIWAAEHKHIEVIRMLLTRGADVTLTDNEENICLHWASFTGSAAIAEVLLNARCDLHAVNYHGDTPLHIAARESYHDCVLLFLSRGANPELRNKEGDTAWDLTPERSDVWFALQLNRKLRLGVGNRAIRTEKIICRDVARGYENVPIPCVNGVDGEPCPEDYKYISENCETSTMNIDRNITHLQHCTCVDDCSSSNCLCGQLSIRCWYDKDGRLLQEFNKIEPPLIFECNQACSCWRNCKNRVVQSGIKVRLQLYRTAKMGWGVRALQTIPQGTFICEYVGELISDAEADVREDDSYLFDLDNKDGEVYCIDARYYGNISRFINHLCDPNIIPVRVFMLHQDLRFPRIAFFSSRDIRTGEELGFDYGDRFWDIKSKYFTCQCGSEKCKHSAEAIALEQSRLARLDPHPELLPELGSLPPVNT
Experiment: MDA-MB-231 H3K9me2 in-cell Western assay (EHMT2 ICW)
Type: cell-based
How it was run: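 Cells seeded at 3,000/well onto pre-dispensed compound; 30 min RT, then 48 h 37 °C/5% CO2. PFA fix, block, α-H3K9me2 1:800 o/n 4 °C, 800CW secondary + DRAQ5. Odyssey scan 700/800 nm; ratio → % inhibition → 4-parameter IC50.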

[1] = Table III, MDA-MB-231 H3K9me2 in-cell Western, read-out: EHMT2 ICW (IC50 μM)
[2] = Table VI, read-out: EHMT2 ICW IC50

| IC50 [1] [µM] | IC50 [2] [µM] | Structure (SMILES) |
| --- | --- | --- |
| 1 to 10 |  | COc1ccc(Nc2nc(C)c(F)c(NC(C)C)n2)cc1OCCCN1CCCC1 [Compound 337] |
| > 10 |  | COc1ccc(Nc2nccc(-n3nc(C)cc3C)n2)cc1OCCCN1CCCC1 [Compound 338] |
| > 10 |  | CNCc1cnc(Nc2ccc(OC)c(OCCCN3CCCC3)c2)nc1 [Compound 339] |
| > 10 |  | COc1ccc(Nc2ccc3ncn(C)c3n2)cc1OCCCN1CCCC1 [Compound 342] |
| > 10 |  | COc1ccc(Nc2ncc3ncn(C)c3n2)cc1OCCCN1CCCC1 [Compound 343] |
| > 10 |  | COc1ccc(Nc2ccc3nn(C)cc3c2)cc1OCCCN1CCCC1 [Compound 345] |
| > 10 |  | COc1ccc(Nc2ccc3ncc(C)n3n2)cc1OCCCN1CCCC1 [Compound 347] |
| 1 to 10 |  | COc1ccc(Nc2nccc(Nc3cccc(F)c3)n2)cc1OCCCN1CCCC1 [Compound 349] |
| 1 to 10 |  | CNc1ccnc(Nc2ccc(OC)c(OCCCN3CC[C@@H](F)C3)c2)n1 [Compound 353] |
| 1 to 10 |  | CNc1ccnc(Nc2ccc(OC)c(OCCCN3CC(F)C3)c2)n1 [Compound 354] |
|  | 1 to 10 | CCN1CC(COc2cc(Nc3nc(C)cc4[nH]ccc34)ncc2OC)C1 [Compound 613] |
|  | 1 to 10 | CNc1cc(C)nc(Nc2cc(OCCCN3CCCC3)c3nc(C)cn3c2)n1 [Compound 616] |
|  | > 10 | CNc1cc(C)nc(Nc2cc(OCCCN3CCCC3)c3nccn3c2)n1 [Compound 618] |
|  | > 10 | CNc1cc(C)nc(Nc2cc(OCCCN3CCCC3)c3oncc3c2)n1 [Compound 793] |
|  | > 10 | COc1ccc(Nc2cc(C)[nH]n2)cc1OCCCN1CCCC1 [Compound 796] |
|  | > 10 | COc1ccc(Nc2cc(C)n(C)n2)cc1OCCCN1CCCC1 [Compound 797] |
|  | 0.1 to 1 | CNc1cc(C)nc(Nc2cnc(OC)c(OC[C@@H]3CCN(C4CCC4)C3)c2)n1 [Compound 798] |
|  | 0.1 to 1 | COc1ccc(Nc2nc(C)cc(NC(C)C)n2)cc1OC[C@@H]1CCNC1 [Compound 800] |
|  | > 10 | COc1cnc(Nc2nccc3nccn23)cc1OC[C@@H]1CCNC1 [Compound 801] |
|  | 1 to 10 | CNc1cc(C2CCOCC2)c2cc(OC)c(OC[C@@H]3CCNC3)cc2n1 [Compound 802] |
|  | > 10 | COc1cc(NC2CCOCC2)ncc1OCC1CCNC1 (stereo not shown) [Compound 806] |
|  | > 10 | CNc1cc(C)nc(Nc2ccc(OC)c(CN[C@H]3CCNC3)c2)n1 [Compound 813] |
|  | > 10 | CNc1cc(C)nc(Nc2ccc(OC)c(CN[C@@H]3CCNC3)c2)c1 [Compound 814] |
|  | 0.1 to 1 | CNc1cc(C)nc(Nc2ccc(OC)c(C#CC3CCNC3)c2)n1 (stereo not shown) [Compound 845] |
|  | 0.1 to 1 | CNc1cc(C)nc(Nc2ccc(OC)c(C#CC3CCCN3)c2)n1 (stereo not shown) [Compound 846] |
|  | 1 to 10 | CNc1cc(C)nc(Nc2ccc(OC)c(C#CC3CCN(C)C3)c2)n1 (stereo not shown) [Compound 847] |
|  | 0.1 to 1 | CNc1cc(C)nc(Nc2ccc(OC)c(C#CC3CCCN3C)c2)n1 (stereo not shown) [Compound 848] |
|  | > 10 | CNC(=O)c1cc(C)nc(Nc2ccc(OC)c(OCCCN3CCCC3)c2)n1 [Compound 854] |
|  | > 10 | CNc1cc(C)nc(Nc2ccc(OC)c(C#CCN3CCN(C)CC3)c2)n1 [Compound 860] |

More lines, now with the values behind:

| Structure (SMILES) | IC50 [1] [µM] | IC50 [2] [µM] |
| --- | --- | --- |
| COc1cnc(Nc2cc(C)nc3[nH]ccc23)cc1OCCCN1CCCC1 [Compound 336, N-(5-methoxy-4-(3-(pyrrolidin-1-yl)propoxy)pyridin-2-yl)-6-methyl-1H-pyrrolo[2,3-b]pyridin-4-amine] | 1 to 10 |  |
| COc1ccc(Nc2ccnc(NCC3CCN(C(C)=O)CC3)n2)cc1OCCCN1CCCC1 [Compound 340] | > 10 |  |
| COc1ccc(Nc2ccc3cnn(C)c3c2)cc1OCCCN1CCCC1 [Compound 341] | > 10 |  |
| COc1ccc(Nc2cccc3ncnn23)cc1OCCCN1CCCC1 [Compound 344] | > 10 |  |
| COc1ccc(Nc2cccc3cn(C)nc23)cc1OCCCN1CCCC1 [Compound 346] | > 10 |  |
| COc1ccc(Nc2nccc(-c3cnn(C)c3)n2)cc1OCCCN1CCCC1 [Compound 348] | > 10 |  |
| COc1ccc(Nc2nccc(NCC3CCOCC3)n2)cc1NCCCN1CCCC1 [Compound 350] | 1 to 10 |  |
| COc1ccc(OCCCN2CCCC2)cc1Nc1nccc(NCC2CCOCC2)n1 [Compound 351] | > 10 |  |
| COc1ccc(NCCCN2CCCC2)cc1Nc1nccc(NCC2CCOCC2)n1 [Compound 352] | > 10 |  |
| CNc1cc2nccn2c(Nc2cc(OCCCN3CCCC3)c(OC)cn2)n1 [Compound 611] |  | 1 to 10 |
| COc1cc2c(C3CCN(C)CC3)cc(C#N)nc2cc1OCCCN1CCCC1 [Compound 790] |  | 1 to 10 |
| COc1ccc(Nc2nn(C)c3cnccc23)cc1OCCCN1CCCC1 [Compound 794] |  | > 10 |
| COc1cnc(Nc2nn(C)c3cnccc23)cc1OCCCN1CCCC1 [Compound 795] |  | > 10 |
| CNc1cc(C2CCOCC2)c2cc(OC)c(OC[C@@H]3CCN(C)C3)cc2n1 [Compound 803] |  | 1 to 10 |
| COc1cc(N(C)C2CCOCC2)ncc1OCC1CCNC1 (stereo not shown) [Compound 808] |  | > 10 |
| CNc1cc(C2CCN(C(C)=O)CC2)c2cc(OC)c(OCCCN3CCCC3)cc2n1 [Compound 809] |  | 0.1 to 1 |
| COc1cc2c(C)cc(N3CCCCC3)nc2cc1OCCCN1CCCC1 [Compound 810] |  | 1 to 10 |
| COc1cc2c(C)nc(N3CCCCC3)nc2cc1OCCCN1CCCC1 [Compound 811] |  | > 10 |

| Structure (SMILES) | IC50 [1] [µM] | IC50 [2] [µM] |
| --- | --- | --- |
| COc1cc2c(C3CCN(C)CC3)cc(N3CCCCC3)nc2cc1OCCCN1CCCC1 [Compound 812] |  | 0.1 to 1 |
| CNc1cc(C2CCCCC2)c2cc(OC)c(OCCCN3CCCC3)cc2n1 [Compound 816] |  | 0.1 to 1 |
| CNc1cc(C(C)C)c2cc(OC)c(OCCCN3CCCC3)cc2n1 [Compound 817] |  | 0.1 to 1 |
| COc1cc2c(C3CCOCC3)cc(=O)[nH]c2cc1OCCCN1CCCC1 [Compound 822] |  | > 10 |
| CNc1cc(CC2CCOCC2)c2cc(OC)c(OCCCN3CCCC3)cc2n1 [Compound 823] |  | 0.1 to 1 |
| COc1cc2c(C3CCOCC3)cc(N3CCCCC3)nc2cc1OCCCN1CCCC1 [Compound 824] |  | 1 to 10 |
| COc1cc2c(C3CCOCC3)cc(N(C)C)nc2cc1OCCCN1CCCC1 [Compound 825] |  | 1 to 10 |
| CNc1cc(C2CCN(CCC(F)(F)F)CC2)c2cc(OC)c(OCCCN3CCCC3)cc2n1 [Compound 832] |  | < 0.1 |
| CNc1cc(C2CCN(CC(F)(F)F)CC2)c2cc(OC)c(OCCCN3CCCC3)cc2n1 [Compound 833] |  | 0.1 to 1 |
| COc1cc2c(C3CCN(C(C)=O)CC3)cc(C)nc2cc1OCCCN1CCCC1 [Compound 834] |  | 1 to 10 |
| CCS(=O)(=O)N1CCC(c2cc(C)nc3cc(OCCCN4CCCC4)c(OC)cc23)CC1 [Compound 836] |  | 1 to 10 |
| COc1cc2c(C3CCN(CC(F)(F)F)CC3)cc(C)nc2cc1OCCCN1CCCC1 [Compound 837] |  | 1 to 10 |
| COc1cc2c(C3CCN(CCC(F)(F)F)CC3)cc(C)nc2cc1OCCCN1CCCC1 [Compound 838] |  | 0.1 to 1 |
| CNc1cc(C2CCN(CCOC)CC2)c2cc(OC)c(OCCCN3CCCC3)cc2n1 [Compound 839] |  | < 0.1 |
| COc1cc2c(C3CCN(CC(F)(F)F)CC3)nc(C)nc2cc1OCCCN1CCCC1 [Compound 841] |  | > 10 |
| CNc1cc(C)c2cc(OC)c(C#CCN3CCCC3)cc2n1 [Compound 859] |  | 0.1 to 1 |
| COc1cc2c(C3CCN([C@@H]4CCOC4)CC3)cc(C)nc2cc1OCCCN1CCCC1 [Compound 863] |  | 0.1 to 1 |
